Results: PMC8828861 (Communications Biology, 2022)

Molecular target: M. tuberculosis Rho (MtbRho) (Mycobacterium tuberculosis, UniProt P9WHF3, M495L)
Format: biochemical

## Nc1ncnc2c1ncn2[C@@H]1O[C@H](COP(=O)(O)OP(=O)(O)OP(=O)(O)O)[C@@H](O)[C@H]1O [ATP]
  TLC NTP hydrolysis assay with poly[rC]: the M495L mutant hydrolyses ATP at a steady-state rate similar to that measured for EcRho
